# Laboratory results: patent publication US20210267944A1 (BioXcel Therapeutics, Inc., priority 2018, published 2021)
# Values joined by “and” are separate entries in the source; they are usually repeats but may differ in a detail not shown here. Equal entries are not always repeated. “Also recorded” adds a separate entry of the source. Structures can show the parent of a compound that is named as a salt. Where two headings read alike, the source gives them in different places.
# Tests used:
# [1] = test system: subjects suffering from opiate withdrawal symptoms;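 note: inpatients in opioid withdrawal given intravenous infusion titrated upward every 30 min (up to 0.1 mcg/kg/hr steps) until COWS total, a clinician-rated 11-item withdrawal scale, fell by half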
# Description: All participants were screened for inclusion and exclusion criteria at screening. The participants were admitted to the site of the day on screening and after 8-12 hours discontinuation of opiates in order to achieve mild to moderate withdrawal. Baseline assessments were performed on the day of admission (Screening), as well as on the day of infusion (Day 1), which was followed by preparation for infusion, the infusion (up to 3 hours) and time necessary for resolution of withdrawal symptoms as defined as a 50% reduction in COWS total score and any decreases in blood pressure or heart rate which meet stopping criteria. A second infusion was given on the next day. The stopping criteria and assessment scheduled remained the same for the second infusion as for the initial infusion.
# In addition to the above attainment of a 50% reduction in COWS total score, dosing was stopped for safety reasons at any time if any of the following occurred: • a. drop in systolic BP<90 mm of Hg. • b. drop in diastolic BP<60 mm of Hg • c. drop in heart rate below 50 beats per minute • d. RASS score of −1
# The dose was increased by up to 0.1 mcg/kg/hr if the desired level of sedation was not achieved by the end of 30 minutes of infusion of the prior dose. The infusion was continued for up to 2.5 hours up to the maximum dose. In no instance was the infusion rate exceed 1.0 mcg/kg/hr and the maximum total dose administered was capped to 1.6 mcg/kg/hr for any participant.
# [2] = test system: agitated subjects with senile dementia of Alzheimer's type; details: human, in vivo
# Description: Clinical assessments of cognitive functioning, alertness/awareness, balance and reaction time were performed prior to the IV infusion, at the end of infusion until the participant had reached their baseline parameters or, in the judgment of the principal investigator, the participant had reached a stable and acceptable level of arousal.
# Time period at which clinical assessment of cognitive functioning, alertness/awareness, balance, and reaction time persist after drowsiness has resolved was assessed. Cognitive functioning, alertness/awareness, balance, and reaction time reached to their baseline level within around 45 minutes after drowsiness was resolved/recovered (see Table 7).
# [3] = for Plasma concentrations: individual opioid withdrawal patients, IV infusion
# [4] = Opioid withdrawal Study
# Description: Additional Assessment Included: • 1. Hematological and blood chemistry, urinalysis • 2. Physical examination • 3. Standard of care detoxification treatment (ancillary medications) to alleviate symptoms of acute withdrawal to ensure safe discharge from study site. • 4. Adverse event reporting
# [5] = test system: healthy, elderly (55-75 years of age) volunteers
# Description: Subjects in the initial cohorts were initially healthy, elderly (55-75 years of age) volunteers. Subjects in later cohort were elderly volunteers healthy except for having mild probable SDAT. Both sexes were included in all cohorts.
# Each infusion rate was administered for 30 minutes. After 30 minutes, the dose was increased by an additional 0.1 mcg/kg/hr until the subject achieved a predetermined level of sedation as assessed by the Richmond Agitation-Sedation Scale (RASS) or a pre-specified reduction in BP and/or HR. The dosing rate was adjusted for subsequent cohorts based on the results of preceding cohorts. Continuous assessment was made of the level of arousal, BP and HR. […] Statistics were descriptive and correlational in terms of pharmacodynamic and pharmacokinetic relationships.
# The participants in cohort 1 were designated by subject codes 11XX and 91XX, and those in cohort 2 were designated by subject codes 12XX. Time needed to resolve refers to the time from the cessation of the infusion to the resolution of the pharmacodynamic effect of the drug on either arousal or blood pressure and heart rate.
smiles,measurement,setting,value
Cc1cccc([C@H](C)c2cnc[nH]2)c1C [dexmedetomidine hydrochloride],COW score,"[1]; Day 2, Patient OP-1 (Treatment), last cell, 30 min. post Infusion",0
same,COW score,"[1]; Day 2, Patient OP-2 (Treatment), 00:00 Hr",14
same,COW score,"[1]; Day 2, Patient OP-2 (Treatment), 00:15 Hr",11
same,COW score,"[1]; Day 2, Patient OP-2 (Treatment), 00:30 Hr",12
same,COW score,"[1]; Day 2, Patient OP-2 (Treatment), 00:45 Hr",10
same,COW score,"[1]; Day 2, Patient OP-2 (Treatment), 01:00 Hr",9
same,COW score,"[1]; Day 2, Patient OP-2 (Treatment), 01:15 Hr",7
same,COW score,"[1]; Day 2, Patient OP-2 (Treatment), last cell, 30 min. post Infusion",4
same,COW score,"[1]; Day 2, Patient OP-3 (Treatment), 00:00 Hr",10
same,COW score,"[1]; Day 2, Patient OP-3 (Treatment), 00:15 Hr",8
same,COW score,"[1]; Day 2, Patient OP-3 (Treatment), 00:30 Hr",6
same,COW score,"[1]; Day 2, Patient OP-3 (Treatment), 00:45 Hr",4
same,COW score,"[1]; Day 2, Patient OP-3 (Treatment), last cell, 30 min. post Infusion",4
same,COW score,"[1]; Day 2, Patient OP-9 (Treatment), 00:30 Hr",14
same,COW score,"[1]; Day 2, Patient OP-9 (Treatment), 00:45 Hr",14
same,COW score,"[1]; Day 2, Patient OP-9 (Treatment), 01:00 Hr",14
same,COW score,"[1]; Day 2, Patient OP-9 (Treatment), 01:15 Hr",12
same,COW score,"[1]; Day 2, Patient OP-9 (Treatment), 01:30 Hr",12
same,COW score,"[1]; Day 2, Patient OP-9 (Treatment), 01:45 Hr",12
same,COW score,"[1]; Day 2, Patient OP-9 (Treatment), 02:00 Hr",9
same,COW score,"[1]; Day 2, Patient OP-9 (Treatment), last cell, 30 min. post Infusion",9
same,COW score,"[1]; Day 2, Patient OP-17 (Treatment), 00:00 Hr",14
same,COW score,"[1]; Day 2, Patient OP-17 (Treatment), 00:15 Hr",14
same,COW score,"[1]; Day 2, Patient OP-17 (Treatment), 00:30 Hr",12
same,COW score,"[1]; Day 2, Patient OP-17 (Treatment), 00:45 Hr",11
same,COW score,"[1]; Day 2, Patient OP-17 (Treatment), 01:00 Hr",5
same,COW score,"[1]; Day 2, Patient OP-17 (Treatment), last cell, 30 min. post Infusion",5
same,Efficacy (Primary/secondary end points): subjects with COWS greater than or equal to 50% reduction,[1]; Opioid withdrawal Study,11/11 COWS
same,Range of efficacious dose of IV dexmedetomidine hydrochloride,"[1]; Opioid withdrawal Study, continuous infusion",0.2 to 0.7 µg/kg/h
same,effect on physiological symptoms of opioid withdrawal (COWS),[1]; opioid withdrawal,effectively mitigated the physiological symptoms of opioid withdrawal
same,subjects who achieved 50% reduction in COW score,"[1]; opioid withdrawal, Day 1",10 out of 10
same,"optimal dose at 50% of the COW score achieved, Max","[1]; opioid withdrawal, Day 1, n=10",0.4 µg/kg/h
same,"optimal dose at 50% of the COW score achieved, Mean ± Sd (mean infusion rate)","[1]; opioid withdrawal, Day 1, n=10",0.29 µg/kg/h
same,"optimal dose at 50% of the COW score achieved, Median","[1]; opioid withdrawal, Day 1, n=10",0.3 µg/kg/h
same,"optimal dose at 50% of the COW score achieved, Min","[1]; opioid withdrawal, Day 1, n=10",0.2 µg/kg/h
same,"optimal dose at 50% of the COW score achieved, Mean ± Sd (mean infusion rate)","[1]; opioid withdrawal, Day 1, n=10, listed as Test",0.29 ± 0.08 µg/kg/h
same,patients in the treatment arm who achieved 50% reduction in COW score,"[1]; opioid withdrawal, Day 2",5 out of 5
same,"optimal dose at 50% of the COW score achieved, Max","[1]; opioid withdrawal, Day 2, n=5",0.7 µg/kg/h
same,"optimal dose at 50% of the COW score achieved, Mean ± Sd (mean infusion rate)","[1]; opioid withdrawal, Day 2, n=5",about 0.44 mcg/kg/hr
same,"optimal dose at 50% of the COW score achieved, Median","[1]; opioid withdrawal, Day 2, n=5",0.4 µg/kg/h
same,"optimal dose at 50% of the COW score achieved, Min","[1]; opioid withdrawal, Day 2, n=5",0.2 µg/kg/h
same,"optimal dose at 50% of the COW score achieved, Mean ± Sd (mean infusion rate)","[1]; opioid withdrawal, Day 2, n=5, listed as Test",0.44 ± 0.16 µg/kg/h
same,"Time for cognitive functioning, alertness/awareness, balance, reaction time to reach baseline after drowsiness",[2],10 min
same,"Time for cognitive functioning, alertness/awareness, balance, reaction time to reach baseline after drowsiness, Max",[2],90 min
same,"Time for cognitive functioning, alertness/awareness, balance, reaction time to reach baseline after drowsiness, Mean ± SD",[2],42.9 ± 27.36 min
same,"Time for cognitive functioning, alertness/awareness, balance, reaction time to reach baseline after drowsiness, Median",[2],45 min
same,"time for cognitive functioning, alertness/awareness, balance, reaction time to reach baseline level after drowsiness resolved",[2],≤ 45 min
same,Plasma concentrations,"[3]; Day 1 (printed Day −1), 00:00 Hr",BLQ
same,Plasma concentrations,"[3]; Day 2 (printed Day −2), 00:00 Hr",BLQ
same,Plasma concentrations,"[3]; Day 2 (printed Day −2), 01:00 Hr",54.81 picograms/ml and 97.92 picograms/ml and 119.71 picograms/ml
same,Plasma concentration achieved at efficacious doses,[3]; Opioid withdrawal Study,0.011 to 0.406 ng/mL
same,adverse events,[4],No adverse event was reported
same,time to mild sedation after starting the dose which produced the desired effect,[5]; Example 1A,≤ 30 min
same,subjects in whom mild sedation (RASS score of −1) was evident,"[5]; Example 1A, IV infusion 0.1-0.6 mcg/kg/hr",11/12
same,Efficacy (Primary/secondary end points): subjects reaching RASS-1,[5]; Healthy Volunteers Cohort 1,6/6 RASS-1
same,Range of efficacious dose of IV dexmedetomidine hydrochloride,"[5]; Healthy Volunteers Cohort 1, continuous infusion",0.3 to 0.5 µg/kg/h
same,Efficacy (Primary/secondary end points): subjects reaching RASS-1,[5]; Healthy Volunteers Cohort 2,5/6 RASS-1
same,Range of efficacious dose of IV dexmedetomidine hydrochloride,"[5]; Healthy Volunteers Cohort 2, continuous infusion",0.3 to 0.4 µg/kg/h
same,Endpoint,"[5]; healthy elderly volunteers, per subject, endpoint/stopping criterion reached",RASS −2; also recorded: RASS −1
same,IV infusion rate at which desired effect/stopping criteria achieved,"[5]; healthy elderly volunteers, per subject, rate raised every 30 min",0.3 mcg/kg/hr (4×) and 0.4 mcg/kg/hr (7×) and 0.5 mcg/kg/hr
same,effects on blood pressure and/or heart rate at exposure achieving mild sedation,[5]; in vivo,did not produce clinically meaningful effects on blood pressure and/or heart rate
same,tolerability,[5]; in vivo,well-tolerated
same,dose required by males compared to females,"[5]; p<0.02, Sign test",twice
same,optimal starting dose,[5]; results of cohorts 1 and 2,0.3 µg/kg/h
